# Measured values: patent publication US11673888B2, “Bicyclic compounds as ATX inhibitors” (Hoffmann-La Roche Inc., priority 2017, dated 2023)
# Target: ATX (human His-tagged) (Homo sapiens (Human), UniProt Q13822)
# Assay: Human ATX Enzyme Inhibition Assay (fluorescence quenching, MR121 substrate)
# Assay type: biochemical
# Details: 30 nM ATX, 1 μM MR121 substrate, 30° C.
# Procedure: Autotaxin (ATX-ENPP2) cloning: cDNA was prepared from commercial human hematopoietic cells total RNA and used as template in overlapping PCR to generate a full length human ENPP2 ORF with or without a 3′-6×His tag. These full length inserts were cloned into the pcDNA3.1V5-His TOPO (Invitrogen) vector. The DNA sequences of several single clones were verified. The DNA from a correct full length clone was used to transfect Hek293 cells for verification of protein expression. The sequence of the encoded ENPP2 conforms to Swissprot entry Q13822, with or without the additional C-terminal 6×His tag. ATX Fermentation: Recombinant protein was produced by large-scale transient transfection in 20 L controlled stirred tank bioreactors (Sartorius). During cell growth and transfection, temperature, stirrer speed, pH and dissolved oxygen concentration were maintained at 37° C., 120 rpm, 7.1 and 30% DO, respectively. […] Expression was analyzed by Western Blot, enzymatic assay and/or analytical IMAC chromatography. […] Human ATX Enzyme Inhibition Assay ATX inhibition was measured by a fluorescence quenching assay using a specifically labeled substrate analogue (MR121 substrate). […]
compound,measurement,value
O=C(c1cnc(OCC2CCOCC2)c(C2CC2)c1)N1CCc2nc(C(=O)N3CCc4[nH]nnc4C3)sc2C1 [Example 1.03],IC50,5 nM
